Patent US11135445B2, “Antimicrobial photodynamic inactivation procedure and system” (The General Hospital Corporation, priority 2014, dated 2021)

Key:
S. aureus [1] = assay: MB-mediated PDI in vitro with/without KI; format: cell-based, Staphylococcus aureus (NCTC 8325); conditions: without light
Method: (§1) 2) Staphylococcus aureus (NCTC 8325) and Escherichia coli K12 (ATCC 33780) were chosen as representative Gram (+) and Gram (−) bacteria respectively, for in vitro studies. A colony of bacteria was suspended in 25 ml of brain heart infusion (BHI) broth (Becton, Dickinson, and Company, Franklin Lakes, N.J.) and grown overnight in a shaker incubator (New Brunswick Scientific, Edison, N.J.) at 120 rpm in aerobic condition at 37° C. An aliquot of 1 ml from overnight suspension was refreshed in fresh BHI for 2 hours at 37° C. to mid-log phase. Cell concentration was estimated by measuring the optical density (OD) at 600 nm [OD of 0.8=10^8 colony forming units (CFU) cells/mL]. Bacterial suspension was centrifuged, washed and re-suspended in PBS to arrest microbial growth, and used (10^8 CFU) for the in vitro or in vivo experiments.
(§2) In vitro PDI studies were carried with S. aureus and with E. coli. […] An aliquot of 100 ul was used as dark control from each sample, another (100 ul) was irradiated with 5 J/cm^2 dose of light (660 nm light) and then placed in a new 96 well plate. The aliquots were serially diluted 10-fold in PBS to give dilutions of 10^1 to 10^5 times in addition to the original concentration. From each dilution 10 microleter aliquots were seeded horizontally on BHI agar. […] Each experiment was performed at least three times.

E. coli [2] = assay: MB-mediated PDI in vitro with/without KI; format: cell-based, Escherichia coli K12 (ATCC 33780); conditions: without light
Method: as §1, §2

S. aureus [3] = assay: Bacteria added after completion of light delivery (MB); format: cell-based, Staphylococcus aureus; conditions: solution irradiated 5 J/cm^2, incubation 5-30 minutes
Method: (§3) To verify if long-lived species such as molecular iodine (I2) or hypoiodous acid (HOI) could be responsible for increased bacterial killing we added bacteria after completion of light delivery.
(§4) We irradiated with 5 J/cm^2 the solutions containing MB or MB+KI to generate the iodine species observed in the spectra described above. Since […] is a stable molecule, and even HOI is reasonably stable with a measurable half-life, by incubating the cells in a solution that could contain photochemically produced bactericidal concentrations of I2 or HOI, we expected to observe bacterial killing. We added bacterial cells and we evaluated the survival fraction of bacteria in an incubation time range between 5 and 30 minutes.

E. coli [4] = assay: as above; format: cell-based, Escherichia coli; conditions: solution irradiated 5 J/cm^2, incubation 5-30 minutes
Method: as §3, §4

MRSA = assay: In vivo PDI of burn infected with bioluminescent MRSA; design: species or system murine
Excerpt: In another related embodiment, the implementation of invention as discussed in Example 1 was extended to in vivo studies in a murine infection model of burn and carried out with the use of bioluminescent MRSA and in vivo imaging. The goal here was to verify the increase of the efficacy of PDI-process of bacterial killing by adding KI to MB in an in vivo infection model.
Aggregately, FIGS. 17A through 17E represent a set of 5 representative bioluminescence image time courses from the burn (each time course from a single mouse in each of the 5 groups) infected with MRSA. […] The amount of light required to eradicate bacteria from the wound was much less when the bacteria treated with the (MB+KI) solution was irradiated than when MB alone was used to pre-treat bacteria prior to irradiation.

Compound: CN(C)c1ccc2nc3ccc(=[N+](C)C)cc-3sc2c1 [MB, Methylene blue]
- dark toxicity (S. aureus [1]): lack of killing without light
- dark toxicity (E. coli [2]): lack of killing without light
- killing of bacteria added after irradiation of the solution (S. aureus [3]): did not observe any bacterial killing
- killing of bacteria added after irradiation of the solution (E. coli [4]): did not observe any bacterial killing
- bacterial bioluminescence during PDI (MRSA; 50 μM MB, with or without 10 mM KI, 660 nm up to 150 J/cm^2): light dose-dependent reduction
- decrease in bacterial bioluminescence (MRSA; 660 nm light, n=6): around 2 log unit
- bacterial re-growth / recurrence after PDI (MRSA; follow-up over days after PDI): not effective to prevent recurrence
